Usually IC50 stands for the concentration at which inhibition is half-maximal.

In one assay the target is T1, GCS (Canis lupus familiaris, UniProt A0A8I3MXG6).
T1 sequence (A0A8I3MXG6 1-394): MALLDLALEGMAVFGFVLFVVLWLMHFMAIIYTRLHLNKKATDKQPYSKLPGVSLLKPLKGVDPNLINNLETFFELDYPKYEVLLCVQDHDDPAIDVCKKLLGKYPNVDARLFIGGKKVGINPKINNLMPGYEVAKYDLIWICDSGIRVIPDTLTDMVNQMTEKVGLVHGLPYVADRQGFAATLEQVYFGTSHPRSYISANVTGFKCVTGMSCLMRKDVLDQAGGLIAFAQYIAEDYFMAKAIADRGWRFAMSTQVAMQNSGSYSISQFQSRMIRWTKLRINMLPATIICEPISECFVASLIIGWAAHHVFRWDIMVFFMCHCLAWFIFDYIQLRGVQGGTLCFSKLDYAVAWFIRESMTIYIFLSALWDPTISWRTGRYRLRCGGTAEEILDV
The assay can be described thus: Assay 1: GCS Enzymatic Assay (MDCK cell lysate, C6-NBD-Ceramide, LC/MS). Conditions: Table 2; data marked by *. It counts as biochemical, canine. Summed up:
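LC/MS/MS measurement of glucosylceramide and NBD-ceramide after a 1 h, 37 °C reaction with 100 μM UDP-glucose and 10 μM C6-NBD-ceramide gave IC50s or percent inhibition.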
As for `CC1(C)CCc2cc([C@@H](O)[C@@H](CN3CCCC3)NC(=O)C(F)(F)c3cc4cc(Cl)ccc4o3)ccc2O1` [Compound 119, 2-(5-chlorobenzofuran-2-yl)-N-((1R,2R)-1-(2,2-dimethylchroman-6-yl)-1-hydroxy-3-(pyrrolidin-1-yl)propan-2-yl)-2,2-difluoroacetamide], the “% inhibition generated from Assay 1” value was “A* (the compound had a % inhibition of a percent inhibition of greater than or equal to about 50%)”.

For the molecule `O=C(N[C@H](CN1CCCC1)[C@H](O)c1ccc(OC2CC2)nc1)C(F)(F)CCc1ccc2ccccc2c1` [Compound 120, N-((1R,2R)-1-(6-cyclopropoxypyridin-3-yl)-1-hydroxy-3-(pyrrolidin-1-yl)propan-2-yl)-2,2-difluoro-4-(naphthalen-2-yl)butanamide], the “% inhibition generated from Assay 1” value is recorded as “A* (the compound had a % inhibition of a percent inhibition of greater than or equal to about 50%)”.

Take `CN1CCC(Oc2ccc([C@@H](O)[C@@H](CN3CCCC3)NC(=O)C(F)(F)CCc3ccc4ccccc4c3)cc2Cl)CC1` [Compound 121, N-((1R,2R)-1-(3-chloro-4-((l-methylpiperidin-4-yl)oxy)phenyl)-1-hydroxy-3-(pyrrolidin-1-yl)propan-2-yl)-2,2-difluoro-4-(naphthalen-2-yl)butanamide]: the “% inhibition generated from Assay 1” value is recorded as “B* (the compound had a % inhibition of greater than or equal to about 3% but less than about 50%)”.

Consider `O=C(N[C@H](CN1CCC1)[C@H](O)c1ccc(OC2CC2)c(Cl)c1)C(=O)c1cc2cc(Cl)ccc2o1` [Compound 122, N-((1R,2R)-3-(azetidin-1-yl)-1-(3-chloro-4-cyclopropoxyphenyl)-1-hydroxypropan-2-yl)-2-(5-chlorobenzofuran-2-yl)-2-oxoacetamide], for which the “% inhibition generated from Assay 1” value is listed as “A* (the compound had a % inhibition of a percent inhibition of greater than or equal to about 50%)”.

Consider `CN1CCC(Oc2ccc([C@@H](O)[C@@H](CN3CCCC3)NC(=O)C(F)(F)c3cc4cc(Cl)ccc4o3)cc2Cl)CC1` [Compound 123, N-((1R,2R)-1-(3-chloro-4-((l-methylpiperidin-4-yl)oxy)phenyl)-1-hydroxy-3-(pyrrolidin-1-yl)propan-2-yl)-2-(5-chlorobenzofuran-2-yl)-2,2-difluoroacetamide], for which the “% inhibition generated from Assay 1” value was “A* (the compound had a % inhibition of a percent inhibition of greater than or equal to about 50%)”.

For the molecule `O=C(N[C@H](CN1CCCC1)[C@H](O)c1ccc(OCCN2CCC2)c(Cl)c1)C(F)(F)CCc1ccc2ccccc2c1` [Compound 131, N-((1R,2R)-1-(4-(2-(azetidin-1-yl)ethoxy)-3-chlorophenyl)-1-hydroxy-3-(pyrrolidin-1-yl)propan-2-yl)-2,2-difluoro-4-(naphthalen-2-yl)butanamide], the “% inhibition generated from Assay 1” value was “A* (the compound had a % inhibition of a percent inhibition of greater than or equal to about 50%)”.

With `O=C(N[C@H](CN1CCC1)[C@H](O)c1ccc(OC2CC2)c(Cl)c1)C(F)(F)CCc1ccc2cc(F)ccc2c1` [Compound 134, N-((1R,2R)-3-(azetidin-1-yl)-1-(3-chloro-4-cyclopropoxyphenyl)-1-hydroxypropan-2-yl)-2,2-difluoro-4-(6-fluoronaphthalen-2-yl)butanamide], the “% inhibition generated from Assay 1” value is “A* (the compound had a % inhibition of a percent inhibition of greater than or equal to about 50%)”.

In the case of `O=C(N[C@H](CN1CCC1)[C@H](O)c1ccc(OC2CC2)c(Cl)c1)/C(CCc1ccc2cc(F)ccc2c1)=N/O` [Compound 137, (E)-N-((1R,2R)-3-(azetidin-1-yl)-1-(3-chloro-4-cyclopropoxyphenyl)-1-hydroxypropan-2-yl)-4-(6-fluoronaphthalen-2-yl)-2-(hydroxyimino)butanamide], the “% inhibition generated from Assay 1” value was “B* (the compound had a % inhibition of greater than or equal to about 3% but less than about 50%)”.

With `O=C(N[C@H](CN1CCCC1)[C@H](O)c1ccc(OC2CC2)c(Cl)c1)C(F)(F)c1ccc2cc(Cl)ccc2c1` [Compound 139, N-((1R,2R)-1-(3-chloro-4-cyclopropoxyphenyl)-1-hydroxy-3-(pyrrolidin-1-yl)propan-2-yl)-2-(6-chloronaphthalen-2-yl)-2,2-difluoroacetamide], the “% inhibition generated from Assay 1” value is “A* (the compound had a % inhibition of a percent inhibition of greater than or equal to about 50%)”.

Still in this assay, the particulars now being: Table 2; data without asterisk; read-out: IC50 (nM) generated from Assay 1.
Consider `O=C(N[C@H](CN1CCCC1)[C@H](O)c1ccc(OC2CC2)c(F)c1)C(F)(F)CCc1ccc2ccccc2c1` [Compound 125, N-((1R,2R)-1-(4-cyclopropoxy-3-fluorophenyl)-1-hydroxy-3-(pyrrolidin-1-yl)propan-2-yl)-2,2-difluoro-4-(naphthalen-2-yl)butanamide], for which the IC50 is under 50 nM.

Consider `O=C(N[C@H](CN1CCCC1)[C@H](O)c1ccc(OC2CC2)c(F)c1)C(F)(F)c1cc2cc(Cl)ccc2o1` [Compound 126, 2-(5-chlorobenzofuran-2-yl)-N-((1R,2R)-1-(4-cyclopropoxy-3-fluorophenyl)-1-hydroxy-3-(pyrrolidin-1-yl)propan-2-yl)-2,2-difluoroacetamide], for which the IC50 is under 50 nM.

For `O=C(N[C@H](CN1CCCC1)[C@H](O)c1ccc(N2CCOCC2)c(Cl)c1)C(F)(F)c1cc2cc(Cl)ccc2o1` [Compound 127, N-((1R,2R)-1-(3-chloro-4-morpholinophenyl)-1-hydroxy-3-(pyrrolidin-1-yl)propan-2-yl)-2-(5-chlorobenzofuran-2-yl)-2,2-difluoroacetamide], the IC50 was 50 to 5000 nM.

With `O=C(N[C@H](CN1CCCC1)[C@H](O)c1ccc(OCCN2CCC2)c(Cl)c1)C(F)(F)c1cc2cc(Cl)ccc2o1` [Compound 128, N-((1R,2R)-1-(4-(2-(azetidin-1-yl)ethoxy)-3-chlorophenyl)-1-hydroxy-3-(pyrrolidin-1-yl)propan-2-yl)-2-(5-chlorobenzofuran-2-yl)-2,2-difluoroacetamide], the IC50 is under 50 nM.

Turning to `O=C(N[C@H](CN1CCCC1)[C@H](O)c1ccc(OC2COC2)c(Cl)c1)C(F)(F)CCc1ccc2ccccc2c1` [Compound 129, N-((1R,2R)-1-(3-chloro-4-(oxetan-3-yloxy)phenyl)-1-hydroxy-3-(pyrrolidin-1-yl)propan-2-yl)-2,2-difluoro-4-(naphthalen-2-yl)butanamide], the IC50 is under 50 nM.

Consider `O=C(N[C@H](CN1CCCC1)[C@H](O)c1ccc(OC2COC2)c(Cl)c1)C(F)(F)c1cc2cc(Cl)ccc2o1` [Compound 130, N-((1R,2R)-1-(3-chloro-4-(oxetan-3-yloxy)phenyl)-1-hydroxy-3-(pyrrolidin-1-yl)propan-2-yl)-2-(5-chlorobenzofuran-2-yl)-2,2-difluoroacetamide], for which the half-inhibitory concentration (IC50) is under 50 nM.

Regarding `O=C(N[C@H](CN1CCCC1)[C@H](O)c1ccc2c(c1)OCCO2)C(F)(F)c1ccc2cc(Cl)ccc2c1` [Compound 132, 2-(6-chloronaphthalen-2-yl)-N-((1R,2R)-1-(2,3-dihydrobenzo[b][1,4]dioxin-6-yl)-1-hydroxy-3-(pyrrolidin-1-yl)propan-2-yl)-2,2-difluoroacetamide], the IC50 was under 50 nM.

`O=C(N[C@H](CN1CCCC1)[C@H](O)c1cc(F)c2c(c1)OCCO2)C(=O)c1ccc(-c2ccc(F)cc2)cc1` [Compound 133, N-((1R,2R)-1-(8-fluoro-2,3-dihydrobenzo[b][1,4]dioxin-6-yl)-1-hydroxy-3-(pyrrolidin-1-yl)propan-2-yl)-2-(4′-fluoro-[1,1′-biphenyl]-4-yl)-2-oxoacetamide]: the IC50 is under 50 nM.

Turning to `O=C(N[C@H](CN1CCCC1)[C@H](O)c1cc(F)c2c(c1)OCCO2)C(F)(F)c1ccc2cc(Cl)ccc2c1` [Compound 135, 2-(6-chloronaphthalen-2-yl)-2,2-difluoro-N-((1R,2R)-1-(8-fluoro-2,3-dihydrobenzo[b][1,4]dioxin-6-yl)-1-hydroxy-3-(pyrrolidin-1-yl)propan-2-yl)acetamide], the half-inhibitory concentration (IC50) is under 50 nM.

Regarding `O=C(N[C@H](CN1CCCC1)[C@H](O)c1ccc(OC2CC2)c(Cl)c1)/C(=N/O)c1cc2cc(Cl)ccc2o1` [Compound 136, (E)-N-((1R,2R)-1-(3-chloro-4-cyclopropoxyphenyl)-1-hydroxy-3-(pyrrolidin-1-yl)propan-2-yl)-2-(5-chlorobenzofuran-2-yl)-2-(hydroxyimino)acetamide], the IC50 is under 50 nM.

Take `O=C(N[C@H](CN1CCCC1)[C@H](O)c1cc(F)c2c(c1)OCCO2)/C(=N/O)c1ccc(-c2ccc(F)cc2)cc1` [Compound 138, (E)-N-((1R,2R)-1-(8-fluoro-2,3-dihydrobenzo[b][1,4]dioxin-6-yl)-1-hydroxy-3-(pyrrolidin-1-yl)propan-2-yl)-2-(4′-fluoro-[1,1′-biphenyl]-4-yl)-2-(hydroxyimino)acetamide]: the IC50 was under 50 nM.

For the molecule `O=C(N[C@H](CN1CCCC1)[C@H](O)c1cc(F)c2c(c1)OCCO2)C(F)(F)c1ccc(-c2ccc(F)cc2)cc1` [Compound 140, 2,2-difluoro-N-((1R,2R)-1-(8-fluoro-2,3-dihydrobenzo[b][1,4]dioxin-6-yl)-1-hydroxy-3-(pyrrolidin-1-yl)propan-2-yl)-2-(4′-fluoro-[1,1′-biphenyl]-4-yl)acetamide], the IC50 was under 50 nM.

Take `O=C(N[C@H](CN1CCC1)[C@H](O)c1cc(F)c2c(c1)OCCO2)/C(CCc1ccc2ccccc2c1)=N/O` [Compound 141, (E)-N-((1R,2R)-3-(azetidin-1-yl)-1-(8-fluoro-2,3-dihydrobenzo[b][1,4]dioxin-6-yl)-1-hydroxypropan-2-yl)-2-(hydroxyimino)-4-(naphthalen-2-yl)butanamide]: the IC50 was under 50 nM.

These data come from patent US10227323B2, “Glucosylceramide synthase inhibitors for the treatment of diseases” (BIOMARIN PHARMACEUTICAL INC., priority 2013, dated 2019).
